Source: patent US20110263451A1, “BIOLOGICAL MARKERS PREDICTIVE OF RHEUMATOID ARTHRITIS RESPONSE TO LYMPHOTOXIN ANTAGONISTS” (GENENTECH, INC, priority 2008, published 2011)

Tested on: human CD4′ Th1 cells
Test: TAPI-1 effect on soluble cytokines shed into culture supernatant of re-activated Th1 cells
Format: cell-based
Procedure: High Bind 96-well microtiter plates (Meso Scale Discovery (MSD), Gaithersburg, Md.) were spotted with 5 uL goat anti-human LTα clone AF211 (R&D Systems) diluted in PBS/0.05% Tween 20 (PBS/Tween) to 2 μg/ml, and incubated for one hour at room temperature. Wells were blocked with 150 uL PBS+5% BSA for 1-2 hours with agitation. Plates were washed 6× with PBS/Tween and a titration curve of recombinant human LTα3 (Genentech Inc.) controls, and test samples diluted in high salt assay diluent (HSAD: PBS, 0.5% BSA, 0.05% Tween 20, 0.25% CHAPS, 5 mM EDTA, 0.20% BgG, 0.35M NaCl, 10% FBS) were added at 25 μl/well and incubated for 2 hours with agitation. […] Plates were washed, 500 ng/mL Strepavidin-Sulgo-TAG® (MSD) diluted in AD was added at 25 μL/well, and plates were incubated for 30 minutes with agitation. Plates were washed with PBS/Tween 6×, and 150 μl/well of Read Buffer T (MSD) diluted 1:2 in H20 was added to wells. Plates were read on an MA6000 Sector™ Imager (MSD) according to manufacturer's. A weighted 4-parameter fit standard curve was plotted using XLFit (Guildford, UK) and values of unknowns were extrapolated.
Soluble human TNF-α, was detected using a human 96-well TNF-α kit (K111BHA-4, Meso Scale Discovery) according to manufacturer's instructions.
Total human CD4^+ T cells were isolated from PBMC with a CD4^+ T cell isolation kit (Miltenyi Biotec). Cells were cultured in complete DMEM media (DMEM supplemented with 10% FBS, 2 mM glutamine, 2 μM 2-ME, 1 mM sodium pyruvate, 100 U/ml penicillin and 100 μg/ml streptomycin) in presence of 5 μg/ml anti-CD3 mAb and 2 μg/ml anti-CD28 mAb. Human Th subset polarization conditions were as follows: Th0: 5 μg/ml anti-hIL-12, 5 μg/ml anti-hIFN-γ 1 μg/ml anti-hIL-4; Th1: 1 ng/ml rhIL-12, 10 ng/ml rhIFN-γ, 1 μg/ml anti-hIL-4; Th2: 5 ng/ml rhIL-4, 5 μg/ml anti-hIL-12, 6 μg/ml anti-hIFN-γ; Th17: 10 ng/ml rhIL-23, 10 μg/ml anti-hIL-12, 10 μg/ml anti-hIFN-γ. T cells were re-stimulated with 5 μg/mL anti-CD3 and 2 μg/mL anti-CD28 with indicated amount of TNFα protease inhibitor 1 (TAPI-1) (Peptides International) or DMSO as control.
At day1 and day2 after re-stimulation, cells were collected for FACS and RNA preparation; culture supernatants were collected for LT and TNF-α quantitation.
To determine if LTαβ complexes were shed by metalloproteinase cleavage, the TNFα protease inhibitor 1 (TAPI-1), known to inhibit the cleavage of TNFα by ADAM17 protease, was tested on human CD4′ Th1 cells. Culture supernatants were analyzed for solLTαβ, LTα3 and TNFα one day post re-activation in the presence or absence of TAPI-1 (FIGS. 2A & B). T cells were collected, cultured and polarized as in Example 2 above.

[1] = Th1 cells, 10 or 50 μM TAPI-1, 1 day post re-activation

CC(C)C[C@H](CC(=O)NO)C(=O)N[C@@H](Cc1ccc2ccccc2c1)C(=O)N[C@@H](C)C(=O)NCCN [TAPI-1]
increase in cell surface LT (TAPI-1 treated Th1 cells, FACS, data not shown): not accompanied by an increase in cell surface LT
decrease of shed TNFα supernatant concentrations [1]: 3-8 fold
secreted LTα3 in supernatant [1]: not affected
decrease of soluble LTαβ levels in supernatants of re-activated cells (Th1 cells, 10 or 50 μM TAPI-1, 1 day post re-activation, dose dependent): 2-7 fold
